{"source": "patent US20220401564A1", "about": "(DANA-FARBER CANCER INSTITUTE, INC., priority 2019, published 2022)", "biological_target": "T1, HDAC8 (Homo sapiens, UniProt Q9BY41)", "T1 sequence (Q9BY41 1-377)": "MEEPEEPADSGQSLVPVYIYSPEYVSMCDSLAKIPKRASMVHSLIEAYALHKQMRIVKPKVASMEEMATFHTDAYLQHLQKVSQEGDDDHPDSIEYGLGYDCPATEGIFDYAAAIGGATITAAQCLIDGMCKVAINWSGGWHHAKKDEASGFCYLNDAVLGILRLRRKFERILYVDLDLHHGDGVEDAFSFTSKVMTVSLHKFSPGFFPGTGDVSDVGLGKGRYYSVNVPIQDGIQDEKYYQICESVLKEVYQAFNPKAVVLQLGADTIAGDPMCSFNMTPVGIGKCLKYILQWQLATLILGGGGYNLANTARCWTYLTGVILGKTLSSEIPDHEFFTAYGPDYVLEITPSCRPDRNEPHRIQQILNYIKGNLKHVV", "assay": "Change in cellular protein abundance (TMT proteomics) in Kelly cells", "assay_type": "cell-based", "design": "relative change in relative protein abundance with treatment of Kelly cells; endogenous in cells; host or cells: Kelly cells", "details": "FIG. 3A", "note": "Entries after “also recorded” stand apart in the source; their conditions may differ."}
{"molecule": "Cc1ncsc1-c1ccc(CNC(=O)[C@@H]2C[C@@H](O)CN2C(=O)[C@@H](NC(=O)C2(F)CC2)C(C)(C)C)c(OCCCCCN(CCc2c[nH]c3ccccc23)Cc2ccc(/C=C/C(=O)NO)cc2)c1", "note": "[Compound 7, (2S,4R)—N-(2-((5-((2-(1H-indol-3-yl)ethyl)(4-((E)-3-(hydroxyamino)-3-oxoprop-1-en-1-yl)benzyl)amino)pentyl)oxy)-4-(4-methylthiazol-5-yl)benzyl)-1-((S)-2-(1-fluorocyclopropane-1-carboxamido)-3,3-dimethylbutanoyl)-4-hydroxypyrrolidine-2-carboxamide]", "values": [{"measurement": "HDAC8 protein levels, relative protein abundance compared to DMSO control", "result": "promote degradation; also recorded: significant and selective reduction"}]}
